The test system of data set [1] is Human promyelocytic leukemia HL-60 cells. In words: Cell differentiation of HL-60 cells by nitroblue tetrazolium (NBT) reduction. The format is cell-based. The settings on record: 50% differentiation or effective concentration, read-out: NBT ED50. The method, then:
Human promyelocytic leukemia HL-60 cells were cultured in RPMI-1640 medium supplemented by 10% heat-inactivated calf serum and 100 U/ml of penicillin plus 100 μg/ml of streptomycin. The flasks containing cells and medium were incubated in an incubator with 5% CO2 at 37° C. Log phase cells were seeded into the medium at a concentration of 1.2×10^5to 1.4×10^5 cells per ml and cultured in flasks containing 5 ml of medium. Each group consisted of three flasks. Different concentrations of chalcone-retinoids were added. At intervals following the addition of chalcone-retinoids to the cultures, a small portion of cells was removed and live cells were counted under a light microscope using a dye-exclusionmethod with trypan blue. Cell differentiation was judged in terms of morphology and nitroblue tetrazolium (NBT) reduction.
For a determination of NBT reducing activity, a portion of the chalcone-retinoid-treated cells was removed at intervals following treatment and centrifuged. After centrifugation, 0.5 ml of 0.1% NBT (containing 100 ng TPA) was added to each tube. The contents of the test tubes were then incubated for 1 hour at 37° C. Cell smears were prepared from the cell sediment and stained using the Wright-Giemsa technique. For each smear prepared, 200 cells were isolated for examination under a light microscope with an oil immersion lens. Cells stained with blue-black granules were considered NBT-positive cells. The 50% differentiation or effective concentration (ED50 or EC50) is shown in terms of molar (M) concentration of the […] tested.

A further data set deals with cancer cells. The experiment in a line: MTT assay for inhibitory effect on cancer cells (monolayer culture). It counts as cell-based. Conditions: 120 h, 5 day culture, 1200 tumor cells per well, cell line not named, read-out: MTT ED50. The method, then:
For a monolayer culture to test for the inhibitory effect of chalcone retinoids on cancer cells, 0.5 ml of trypsin solution (0.3 gm/ml) was added to the flasks for digestion. Microtiter plates (96 well) were used for the cell culture and 200 μl of cell suspension (1200 tumor cells) were placed in each well and incubated at 37° C. for 24 hours. Following the addition of the test compound, the control and treated flasks were placed in a CO2 incubator for 5 day culture. For the MTT assay, 200 μl of MTT solution (5 mg in 10 ml of phosphate buffer) plus the medium were added and incubated for another 4 hours. Following incubation, the supernatant was discarded and 200 μl of DMSO was added to each well. With a mild agitation the OD values were determined by the MR 700 Elisa at 570 nm (reference wavelength was 450 nm). The ED50 of the compound and tumor cell survival rate [formula] as percent inhibition were calculated.
(In general: Tetrazolium assays rely on reduction of a dye to a coloured formazan, in cell work by metabolically active cells.)

The subject of data set [2] is human acute myeloid leukemia (AML), neuroblastoma, teratocarcinoma, melanoma, and rat rhabdomyosarcoma cells. Conditions: Smith et al., J. Clin. Oncol. 10 (5):839-864 (1992); cited from earlier work.
The conditions of data set [3]: Preuss-Ueberschar et al., Drug Res. 34:1305-1313 (1984); cited from earlier work.
A further data set relates to melanoma cell. The settings on record: Jing et al. (1992); cited from earlier work.

For the compound `CC(C)(C)c1cc(C(=O)Nc2ccc(C(=O)Nc3ccc(O)cc3)cc2)cc(C(C)(C)C)c1O` [I-A, N-4-[4-(hydroxyphenylaminocarbonyl)phenyl]-3,5-di-t-butyl-4-hydroxybenzamide], the EC50 in data set [1] is greater than 1 µM. Besides, the IC50 in the data set with cancer cells turned out to be 4 µM.
With `CC(=O)Nc1ccc(OC(=O)c2ccc(NC(=O)c3cc(C(C)(C)C)c(O)c(C(C)(C)C)c3)cc2)cc1` [I-B, N-4-[4-(acetaminophenoxycarbonyl)phenyl]-3,5-di-t-butyl-4-hydroxybenzamide], the EC50 in data set [1] was greater than 10 µM. For the same compound, in the data set on cancer cells, the IC50 stood at 11 µM.
Take `COc1c(C(C)(C)C)cc(C(=O)Nc2ccc(C(=O)Oc3ccc(NC(C)=O)cc3)cc2)cc1C(C)(C)C` [I-J, N-4-[4-(acetaminophenoxycarbonyl)phenyl]-3,5-di-t-butyl-4-methoxybenzamide]: in data set [1], the EC50 came out at 1.2 µM. Also, the IC50 with cancer cells was determined as 0.92 µM.
The like results for `COc1c(C(C)(C)C)cc(C(=O)C=Cc2ccc(C(=O)Oc3ccc(NC(C)=O)cc3)cc2)cc1C(C)(C)C` [I-N, 1-(3,5-di-t-butyl-4-methoxyphenyl)-3-[4-(4-acetaminophenoxycarbonyl)-phenyl]-2-propen-1-one] were, in that order, greater than 1 µM and 2 µM.
On the same counts, the results for `CC(=O)Nc1ccc(OC(=O)c2ccc(OC(=O)c3cc(C(C)(C)C)c(O)c(C(C)(C)C)c3)cc2)cc1` [I-Q, 4'-[(4-acetamino)phenoxycarbonylphenyl] 4-hydroxy-3,5-di-t-butyl-benzoate] are 8 µM and 6 µM.
On the same counts, the results for `CCOC(=O)c1ccc(NC(=O)c2ccc(OC(=O)c3cc(C(C)(C)C)c(O)c(C(C)(C)C)c3)cc2)cc1` [I-R, 4-(4-ethoxycarbonyl-phenylaminocarbonyl)phenyl 3,5-di-t-butyl-4-hydroxybenzoate] are greater than 10 µM and greater than 10 µM.
With `CC(C)(C)c1cc(C(=O)Oc2ccc(C(=O)Nc3ccc(C(=O)O)cc3)cc2)cc(C(C)(C)C)c1O` [I-S, 4-(4-carboxy-phenylaminocarbonyl)phenyl 3,5-di-t-butyl-4-hydroxybenzoate], the EC50 in data set [1] was greater than 10 µM. The IC50 in the data set on cancer cells is 1.6 µM.
With `CC1=C(/C=C/C(C)=C/C=C/C(C)=C/C(=O)O)C(C)(C)CCC1` [all-trans-retinoic acid (RA), all-trans-retinoic acid], in data set [2], the induces cell differentiation result is on record as “induces cell differentiation”.
Consider `O=c1ccc2ccccc2o1` [coumarin], for which the teratogenicity result in data set [3] is on record as “not teratogenic”.
As for `O=c1c(-c2ccc(O)cc2)coc2cc(O)ccc12` [diadzein], the “inhibition of melanoma cell growth” value in the data set with melanoma cell is recorded as “inhibits melanoma cell growth”.

The values above are taken from US5703130A, “Chalcone retinoids and methods of use of same” (priority 1996, dated 1997).
